Values after ≈ are worked out from the molar mass of the structure shown.

Series [1] in a line: Compound solubility in water. The series is classed as physicochemical.
In series [2] the target is T1, acid ceramidase (hACR) (Homo sapiens, UniProt Q13510).
T1 construct: expressed in transfected cells
T1 sequence (Q13510 22-395): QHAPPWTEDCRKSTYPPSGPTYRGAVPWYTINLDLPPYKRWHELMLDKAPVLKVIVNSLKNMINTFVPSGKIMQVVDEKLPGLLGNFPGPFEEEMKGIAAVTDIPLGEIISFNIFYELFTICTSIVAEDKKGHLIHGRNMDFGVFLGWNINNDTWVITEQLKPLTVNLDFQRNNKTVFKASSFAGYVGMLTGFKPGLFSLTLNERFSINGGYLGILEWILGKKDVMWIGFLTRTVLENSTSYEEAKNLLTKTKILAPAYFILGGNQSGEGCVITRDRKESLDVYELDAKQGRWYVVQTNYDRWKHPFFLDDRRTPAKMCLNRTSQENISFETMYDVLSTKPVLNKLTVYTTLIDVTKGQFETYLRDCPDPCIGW
Put plainly: Acid ceramidase inhibition, biochemical fluorescent assay with cell lysates overexpressing acid ceramidase (substrate Rbm14-12). As to conditions: cell lysate, 1 hr preincubation at RT, pH 4.5, Rbm14-12 6.3 μM; read-out: IC50 hACR. The method, boiled down:
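Enzyme source was lysate from cells overexpressing acid ceramidase, 10 µg protein per reaction. Compounds were preincubated 1 h at RT in 25 mM NaAc, 100 mM NaCl, pH 4.5.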

In series [1], `COc1nc(C)cn1C(=O)NCCC1CCC(F)(F)C1` (stereo not shown) [Example 154, N-(2-(3,3-Difluorocyclopentyl)ethyl)-2-methoxy-4-methyl-1H-imidazole-1-carboxamide] returned a solubility of 30 µg/mL (≈ 104 µM). Also, the concentration for half-maximal inhibition (IC50) in series [2] fell in the range of 200 to 1000 nM.
For `COCCOc1nc(C(C)(C)C)cn1C(=O)NCCC(C)C` [Example 117, 4-(tert-Butyl)-N-iso-pentyl-2-(2-methoxyethoxy)-1H-imidazole-1-carboxamide] the same measures were 10 µg/mL (≈ 32.1 µM) and 200 to 1000 nM.
The matching figures for `COc1nc(C)cn1C(=O)NCC#CC(C)C` [Example 180, 2-Methoxy-4-methyl-N-(4-methylpent-2-yn-1-yl)-1H-imidazole-1-carboxamide]: 17 µg/mL (≈ 72.3 µM) and under 200 nM.
In series [1], `COc1ccc(-c2cn(C(=O)NC3CCCCC3)cn2)cn1` [Example 62, N-Cyclohexyl-4-(6-methoxypyridin-3-yl)-1H-imidazole-1-carboxamide] yielded a solubility of 0.6 µg/mL (≈ 2 µM). For the same compound, the IC50 in series [2] is over 1000 nM.
`COc1nc(C(C)(C)C)cn1C(=O)NC1CC1` [Example 113, 4-(tert-Butyl)-N-cyclopropyl-2-methoxy-1H-imidazole-1-carboxamide] registered a solubility in series [1] of 24 µg/mL (≈ 101 µM). The IC50 in series [2] was 200 to 1000 nM.
For `COc1nc(C)cn1C(=O)NCCC(C)C` [Example 119, N-iso-Pentyl-2-methoxy-4-methyl-1H-imidazole-1-carboxamide] the same measures were 14 µg/mL (≈ 62.1 µM) and 200 to 1000 nM.
The matching figures for `O=C(NCCC1CC1)n1cnc(-c2ccccc2)c1` [Example 26, N-(2-Cyclopropylethyl)-4-phenyl-1H-imidazole-1-carboxamide]: 1.9 µg/mL (≈ 7.44 µM) and 200 to 1000 nM.
With `COc1nc(C2CCOC2)cn1C(=O)NC1CC1` (stereo not shown) [Example 128, N-Cyclopropyl-2-methoxy-4-(tetrahydrofuran-3-yl)-1H-imidazole-1-carboxamide], the concentration in solution in series [1] (solubility) was 15 µg/mL (≈ 59.7 µM). Besides, the IC50 in series [2] is over 1000 nM.
The matching figures for `COc1nc(C(C)(C)C)cn1C(=O)NCCCc1ccccc1` [Example 101, 4-(tert-Butyl)-2-methoxy-N-(3-phenylpropyl)-1H-imidazole-1-carboxamide]: 10 µg/mL (≈ 31.7 µM) and under 200 nM.
Compound `O=C(NCCCC1(C(F)(F)F)CC1)n1cnc(-c2cccnc2N2CCCCC2)c1` [Example 175, 4-(2-(Piperidin-1-yl)pyridin-3-yl)-N-(3-(1-(trifluoromethyl)cyclopropyl)propyl)-1H-imidazole-1-carboxamide] returned a solubility in series [1] of 1 µg/mL (≈ 2.37 µM). Also, in series [2], the IC50 is under 200 nM.
The matching figures for `CC(CNC(=O)n1cnc(-c2cccnc2)c1)Cc1ccccc1` (stereo not shown) [Example 15, N-(2-Methyl-3-phenylpropyl)-4-(pyridin-3-yl)-1H-imidazole-1-carboxamide]: 16.1 µg/mL (≈ 50.3 µM) and under 200 nM.
The matching figures for `O=C(NCCOc1ccccc1)n1cnc(-c2ccccc2)c1` [Example 18, N-(2-Phenoxyethyl)-4-phenyl-1H-imidazole-1-carboxamide]: 0.06 µg/mL (≈ 0.195 µM) and under 200 nM.
For `COc1nc(C2CCOC2)cn1C(=O)NC1CCCCC1` (stereo not shown) [Example 108, N-Cyclohexyl-2-methoxy-4-(tetrahydrofuran-3-yl)-1H-imidazole-1-carboxamide] the same measures were 32 µg/mL (≈ 109 µM) and over 1000 nM.
In turn, `COc1nc(C)cn1C(=O)NC1CCCC(F)(F)C1` (stereo not shown) [Example 153, N-(3,3-difluorocyclohexyl)-2-methoxy-4-methyl-1H-imidazole-1-carboxamide] gave a solubility in series [1] of 29 µg/mL (≈ 106 µM). Further, the 50% inhibitory concentration (IC50) in series [2] was over 1000 nM.
The matching figures for `COc1nc(C(C)(C)C)cn1C(=O)NCCCCC1CC1` [Example 97, 4-(tert-Butyl)-N-(4-cyclopropylbutyl)-2-methoxy-1H-imidazole-1-carboxamide]: 3 µg/mL (≈ 10.2 µM) and under 200 nM.
Regarding `Cc1cn(C(=O)NC2CCC(F)(F)CC2)c(Oc2cccc(C3CN(C)C3)c2)n1` [Example 162, N-(4,4-Difluorocyclohexyl)-4-methyl-2-(3-(1-methylazetidin-3-yl)phenoxy)-1H-imidazole-1-carboxamide], in series [1], the solubility was 17 µg/mL (≈ 42 µM). For the same compound, the IC50 in series [2] fell in the range of 200 to 1000 nM.
For `CC(C)CCNC(=O)n1cnc(C2CCN(C)CC2)c1` [Example 48, N-iso-Pentyl-4-(1-methylpiperidin-4-yl)-1H-imidazole-1-carboxamide] the same measures were 34.2 µg/mL (≈ 123 µM) and 200 to 1000 nM.
The matching figures for `CC(C)CCNC(=O)n1cnc(-c2cncs2)c1` [Example 51, N-iso-Pentyl-4-(thiazol-5-yl)-1H-imidazole-1-carboxamide]: 25.1 µg/mL (≈ 94.9 µM) and 200 to 1000 nM.
For `COc1nc(-c2coc(C(C)(C)C)n2)cn1C(=O)NCCC1CC1` [Example 103, 4-(2-(tert-Butyl)oxazol-4-yl)-N-(2-cyclopropylethyl)-2-methoxy-1H-imidazole-1-carboxamide] the same measures were 6 µg/mL (≈ 18.1 µM) and over 1000 nM.
`Cc1cn(C(=O)NC2CCC(F)(F)CC2)c(Oc2ccc(N3CCOCC3)cc2)n1` [Example 165, N-(4,4-Difluorocyclohexyl)-4-methyl-2-(4-morpholinophenoxy)-1H-imidazole-1-carboxamide] returned a solubility in series [1] of 21 µg/mL (≈ 49.9 µM). Besides, the IC50 in series [2] was under 200 nM.
For `CC(C)CCCCNC(=O)n1cnc(-c2cccnc2)c1` [Example 39, N-(5-Methylhexyl)-4-(pyridin-3-yl)-1H-imidazole-1-carboxamide], the concentration in solution in series [1] (solubility) came to 2.7 µg/mL (≈ 9.43 µM). The IC50 in series [2] is under 200 nM.
Regarding `Cc1cn(C(=O)NCCc2ccccc2)c(OCCN2CCOCC2)n1` [Example 159, 4-Methyl-2-(2-morpholinoethoxy)-N-phenethyl-1H-imidazole-1-carboxamide], the concentration in solution in series [1] (solubility) was 35 µg/mL (≈ 97.6 µM). The IC50 in series [2] was under 200 nM.
For the compound `CSc1nc(-c2cccnc2)cn1C(=O)NCCC1CC1` [Example 67a], the concentration in solution in series [1] (solubility) was 23 µg/mL (≈ 76.1 µM). The concentration for half-maximal inhibition (IC50) in series [2] was 200 to 1000 nM.
The matching figures for `CSc1nccn1C(=O)NCCC(C)C` [Example 132, N-iso-Pentyl-2-(methylthio)-1H-imidazole-1-carboxamide]: 10 µg/mL (≈ 44 µM) and under 200 nM.
For `Cc1cn(C(=O)NCC#Cc2ccccc2)c(OCCN2CCN(C)CC2)n1` [Example 197, 4-Methyl-2-(2-(4-methylpiperazin-1-yl)ethoxy)-N-(3-phenylprop-2-yn-1-yl)-1H-imidazole-1-carboxamide] the same measures were 38 µg/mL (≈ 99.6 µM) and under 200 nM.
The matching figures for `Cc1nc(-c2ccccc2)cn1C(=O)NCCc1ccccc1` [Example 7, 2-Methyl-N-phenethyl-4-phenyl-1H-imidazole-1-carboxamide]: 1.1 µg/mL (≈ 3.6 µM) and under 200 nM.
Turning to `COc1nc(C)cn1C(=O)NC1CC1` [Example 148, N-Cyclopropyl-2-methoxy-4-methyl-1H-imidazole-1-carboxamide], the solubility in series [1] amounted to 23 µg/mL (≈ 118 µM). Also, the IC50 in series [2] fell in the range of 200 to 1000 nM.
For `CCOc1nc(-c2ccc(OC)nc2)cn1C(=O)NCCC1CC1` [Example 68, N-(2-Cyclopropylethyl)-2-ethoxy-4-(6-methoxypyridin-3-yl)-1H-imidazole-1-carboxamide] the same measures were 2 µg/mL (≈ 6.05 µM) and over 1000 nM.
In turn, `CCOc1nc(C(C)(C)C)cn1C(=O)NCCC1CC1` [Example 92, 4-(tert-Butyl)-N-(2-cyclopropylethyl)-2-ethoxy-1H-imidazole-1-carboxamide] returned a solubility in series [1] of 12 µg/mL (≈ 43 µM). Moreover, in series [2], the IC50 lay in the range of 200 to 1000 nM.
In series [1], `O=C(NCCC1CC1)n1cnc(-c2cccnc2N2CCC(N3CCOCC3)CC2)c1` [Example 54, N-(2-Cyclopropylethyl)-4-(2-(4-morpholinopiperidin-1-yl)pyridin-3-yl)-1H-imidazole-1-carboxamide] came in with a solubility of 32.8 µg/mL (≈ 77.3 µM). Moreover, the IC50 in series [2] is under 200 nM.
The matching figures for `COc1nc(C2CCOCC2)cn1C(=O)NCCC(C)C` [Example 110, N-iso-Pentyl-2-methoxy-4-(tetrahydro-2H-pyran-4-yl)-1H-imidazole-1-carboxamide]: 29 µg/mL (≈ 98.2 µM) and 200 to 1000 nM.
For `COc1nc(-c2cccnc2N2CCN(C)CC2)cn1C(=O)NCC#CC(C)C` [Example 194, 2-Methoxy-N-(4-methylpent-2-yn-1-yl)-4-(2-(4-methylpiperazin-1-yl)pyridin-3-yl)-1H-imidazole-1-carboxamide] the same measures were 45 µg/mL (≈ 113 µM) and over 1000 nM.
For `Cc1cn(C(=O)NCCCC2(C(F)(F)F)CC2)c(OCCN2CCN(C)CC2)n1` [Example 200, 4-Methyl-2-(2-(4-methylpiperazin-1-yl)ethoxy)-N-(3-(1-(trifluoromethyl)cyclopropyl)propyl)-1H-imidazole-1-carboxamide] the same measures were 49 µg/mL (≈ 117 µM) and under 200 nM.
In series [1], `CCC1(NC(=O)n2cc(C(C)(C)C)nc2OC)CC1` [Example 129, 4-(tert-Butyl)-N-(1-ethylcyclopropyl)-2-methoxy-1H-imidazole-1-carboxamide] displayed a solubility of 16 µg/mL (≈ 60.3 µM). The IC50 in series [2] was over 1000 nM.
The matching figures for `Cc1ccc(-c2cn(C(=O)NCCc3ccccc3)cn2)cn1` [Example 29, 4-(6-Methylpyridin-3-yl)-N-phenethyl-1H-imidazole-1-carboxamide]: 3 µg/mL (≈ 9.79 µM) and under 200 nM.

As usually defined, the solubility is the concentration that dissolves in the medium under given conditions. Read a low solubility as a poorly soluble substance. In general, IC50 refers to the concentration needed to halve the response being measured.

These data come from patent US20220411388A1, “SUBSTITUTED IMIDAZOLE CARBOXAMIDES AND THEIR USE IN THE TREATMENT OF MEDICAL DISORDERS” (Bial - R&D Investments, S.A., priority 2019, published 2022).
